Laboratory results: publication PMC5770610, “Structure and function of urea amidolyase” (Bioscience Reports, 2018)

Target: T1, KlAH (Kluyveromyces lactis, UniProt Q6CP22)
T1 construct: gene KLLA0_E08119g; isolated allophanate hydrolase (AH) part, N and C domains, N-terminal part of KlUA; recombinant; homodimer
Test: glutamate dehydrogenase-coupled NADH assay of ammonium
Format: biochemical
Details: AH activity; 6 mM MgCl2, 20 mM KCl, pH 8.0; substrate as potassium salt; read-out: Km^1
From the text: glutamate dehydrogenase-coupled NADH assay of ammonium on KlAH

T1 sequence (Q6CP22 entry or part of it): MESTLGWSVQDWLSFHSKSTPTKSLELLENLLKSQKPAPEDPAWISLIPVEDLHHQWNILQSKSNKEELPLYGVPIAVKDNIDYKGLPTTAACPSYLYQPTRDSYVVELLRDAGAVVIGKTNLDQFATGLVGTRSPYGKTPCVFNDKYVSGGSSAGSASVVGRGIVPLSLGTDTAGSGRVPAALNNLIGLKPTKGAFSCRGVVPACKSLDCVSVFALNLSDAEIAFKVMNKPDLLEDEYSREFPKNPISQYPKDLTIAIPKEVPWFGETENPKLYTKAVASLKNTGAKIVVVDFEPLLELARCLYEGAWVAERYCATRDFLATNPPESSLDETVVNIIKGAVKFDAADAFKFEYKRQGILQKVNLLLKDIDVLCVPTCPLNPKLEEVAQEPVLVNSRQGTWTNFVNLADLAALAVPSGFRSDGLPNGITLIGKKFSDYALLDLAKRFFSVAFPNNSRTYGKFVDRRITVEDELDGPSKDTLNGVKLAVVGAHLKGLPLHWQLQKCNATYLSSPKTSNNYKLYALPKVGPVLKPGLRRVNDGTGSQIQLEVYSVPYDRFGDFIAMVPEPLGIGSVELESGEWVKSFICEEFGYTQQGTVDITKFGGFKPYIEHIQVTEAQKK

- Km: 432 ± 60 µM
SMILES: NC(=O)NC(=O)O [allophanate]
